# According to ChEMBL document CHEMBL3217528, “Bicyclic imidazole-4-one derivatives: a new class of antagonists for the orphan G protein-coupled receptors GPR18 and GPR55” (Medchemcomm, 2014):
# pEC50, pIC50, pKi: −log10 of the molar value. The source made the active and inactive calls. The rule behind the calls is not given here.
# Target: T1, Cannabinoid receptor 1 (Homo sapiens, UniProt P21554)
# Test: Intrinsic activity at human recombinant CB1 receptor expressed in HEK293 cell membranes assessed as stimulation of [35S]GTPgammaS binding at 10 uM by liquid scintillation counting method relative to CP55,940
# Type: functional
# Conditions: not given
# T1 sequence (P21554 whole entry): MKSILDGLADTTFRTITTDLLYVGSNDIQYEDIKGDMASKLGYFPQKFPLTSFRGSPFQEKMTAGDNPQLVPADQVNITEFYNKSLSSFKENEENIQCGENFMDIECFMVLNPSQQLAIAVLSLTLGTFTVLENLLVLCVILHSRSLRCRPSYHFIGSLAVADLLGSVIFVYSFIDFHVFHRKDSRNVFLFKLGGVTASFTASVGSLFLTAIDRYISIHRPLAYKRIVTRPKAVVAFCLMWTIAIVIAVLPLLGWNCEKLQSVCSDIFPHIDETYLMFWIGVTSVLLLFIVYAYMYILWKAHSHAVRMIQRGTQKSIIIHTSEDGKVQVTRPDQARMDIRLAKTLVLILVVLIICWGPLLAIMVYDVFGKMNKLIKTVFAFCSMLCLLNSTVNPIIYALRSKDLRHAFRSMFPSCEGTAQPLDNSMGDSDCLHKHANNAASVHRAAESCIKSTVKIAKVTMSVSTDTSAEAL
row,Intrinsic activity [%],Structure (SMILES)
1,-51,O=C1/C(=C/c2cccc(OCc3ccc(Cl)cc3Cl)c2)N=C2SCCCN12
2,-14,O=C1/C(=C/c2cccc(OCc3cccc(Cl)c3)c2)N=C2SCCCCN12
3,-16,O=C1/C(=C/c2cccc(OCc3ccc(Cl)cc3)c2)N=C2SCCCN12

# Target: Cannabinoid receptor 1 (Rattus norvegicus) (UniProt P20272)
# Sequence (P20272 whole entry): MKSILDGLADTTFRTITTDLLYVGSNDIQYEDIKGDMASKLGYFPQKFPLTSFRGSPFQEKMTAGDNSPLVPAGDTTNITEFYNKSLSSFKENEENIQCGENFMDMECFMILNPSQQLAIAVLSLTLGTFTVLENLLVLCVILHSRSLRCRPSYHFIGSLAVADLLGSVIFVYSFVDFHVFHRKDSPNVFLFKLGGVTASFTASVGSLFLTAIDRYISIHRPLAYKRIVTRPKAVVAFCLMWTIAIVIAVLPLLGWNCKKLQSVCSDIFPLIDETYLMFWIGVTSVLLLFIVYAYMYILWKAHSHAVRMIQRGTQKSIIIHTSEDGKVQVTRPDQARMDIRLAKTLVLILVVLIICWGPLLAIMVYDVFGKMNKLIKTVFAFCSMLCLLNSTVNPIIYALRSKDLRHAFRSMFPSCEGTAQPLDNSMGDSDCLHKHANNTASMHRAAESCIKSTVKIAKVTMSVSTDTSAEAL
# Test: Intrinsic activity at CB1 receptor in rat brain cortical membranes assessed as stimulation of [35S]GTPgammaS binding at 10 uM by liquid scintillation counting method relative to CP55,940
# Type: functional, cell membranes
# Conditions: not given
row,Intrinsic activity [%],Structure (SMILES)
1,-10,O=C1/C(=C/c2cccc(OCc3ccc(Cl)cc3Cl)c2)N=C2SCCCN12
2,-12,O=C1/C(=C/c2cccc(OCc3cccc(Cl)c3)c2)N=C2SCCCCN12
3,-7,O=C1/C(=C/c2cccc(OCc3ccc(Cl)cc3)c2)N=C2SCCCN12

# Target: T2, G-protein coupled receptor 55 (Homo sapiens, UniProt Q9Y2T6)
# T2 sequence (Q9Y2T6 whole entry, the tested form may be a part): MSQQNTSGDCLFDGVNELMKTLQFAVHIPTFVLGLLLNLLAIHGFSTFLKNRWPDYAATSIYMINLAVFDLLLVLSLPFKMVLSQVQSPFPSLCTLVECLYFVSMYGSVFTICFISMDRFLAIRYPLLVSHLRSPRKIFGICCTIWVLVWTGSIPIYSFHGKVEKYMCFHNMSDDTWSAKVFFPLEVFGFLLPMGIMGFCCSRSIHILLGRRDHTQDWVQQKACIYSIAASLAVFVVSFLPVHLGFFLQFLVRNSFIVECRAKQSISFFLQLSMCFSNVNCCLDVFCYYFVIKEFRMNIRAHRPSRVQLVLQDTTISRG
# Test: Agonist activity at human GPR55 expressed in CHO cells assessed as induction of LPI-induced beta-arrestin recruitment by beta-galactosidase enzyme fragment complementation method relative to LPI
# Type: cell-based
# Parameters: concentration or dose not given beside the values
# Conditions: not given
row,Structure (SMILES),Activity [%]
1,O=C1/C(=C/c2cccc(OCc3ccccc3Cl)c2)N=C2SCCCCN12,7
2,O=C(Oc1cccc(/C=C2\N=C3SCCCN3C2=O)c1)c1ccccc1,49

# Next, values leading:
row,Activity [%],Structure (SMILES)
1,21,O=C1/C(=C/c2cccc(OCc3ccc(Cl)cc3)c2)N=C2SCCCN12
2,52,O=C1/C(=C/c2cccc(OCc3cccc(Cl)c3)c2)N=C2SCCCCN12
3,12,O=C1/C(=C/c2cccc(OCc3ccc(Cl)cc3Cl)c2)N=C2SCCCN12

# Target: T3, N-arachidonyl glycine receptor (Homo sapiens) (UniProt Q14330)
# T3 sequence (whole entry): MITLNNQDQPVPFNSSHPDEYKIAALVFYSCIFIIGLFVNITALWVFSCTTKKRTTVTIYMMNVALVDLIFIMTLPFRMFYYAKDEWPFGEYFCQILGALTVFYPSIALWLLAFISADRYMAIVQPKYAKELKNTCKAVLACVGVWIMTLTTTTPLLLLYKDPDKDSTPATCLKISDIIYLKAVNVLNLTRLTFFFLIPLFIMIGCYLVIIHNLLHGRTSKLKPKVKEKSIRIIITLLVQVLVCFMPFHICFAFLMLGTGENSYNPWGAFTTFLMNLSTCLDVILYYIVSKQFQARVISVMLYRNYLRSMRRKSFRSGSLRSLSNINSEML
# Test: Agonist activity at human GPR18 expressed in CHO cells assessed as induction of beta-arrestin recruitment by beta-galactosidase enzyme fragment complementation method relative to delta9-THC
# Type: cell-based
# Parameters: concentration or dose not given beside the values
# Conditions: not given
row,Structure (SMILES),Activity [%]
1,O=C1/C(=C/c2cccc(OCc3ccccc3Cl)c2)N=C2SCCCCN12,0
2,O=C(Oc1cccc(/C=C2\N=C3SCCCN3C2=O)c1)c1ccccc1,0

# Second part, the compound after the results:
row,Activity [%],Structure (SMILES)
1,0,O=C1/C(=C/c2cccc(OCc3ccc(Cl)cc3)c2)N=C2SCCCN12
2,0,O=C1/C(=C/c2cccc(OCc3cccc(Cl)c3)c2)N=C2SCCCCN12
3,0,O=C1/C(=C/c2cccc(OCc3ccc(Cl)cc3Cl)c2)N=C2SCCCN12

# Target: not listed separately
# Test: Displacement of [3H]diazepam from GABAA receptor in rat brain cortical membranes
# Type: cell membranes
# Conditions: not given
row,pKi,Structure (SMILES)
1,< 5.00,O=C1/C(=C/c2cccc(OCc3ccc(Cl)cc3Cl)c2)N=C2SCCCN12
2,< 5.00,O=C1/C(=C/c2cccc(OCc3ccc(Cl)cc3)c2)N=C2SCCCN12

row,Structure (SMILES),pKi
1,O=C(Oc1cccc(/C=C2\N=C3SCCCN3C2=O)c1)c1ccccc1,< 5.00

# Target: T4, G-protein coupled receptor 35 (Homo sapiens, UniProt Q9HC97)
# T4 sequence (Q9HC97 whole entry, the tested form may be a part): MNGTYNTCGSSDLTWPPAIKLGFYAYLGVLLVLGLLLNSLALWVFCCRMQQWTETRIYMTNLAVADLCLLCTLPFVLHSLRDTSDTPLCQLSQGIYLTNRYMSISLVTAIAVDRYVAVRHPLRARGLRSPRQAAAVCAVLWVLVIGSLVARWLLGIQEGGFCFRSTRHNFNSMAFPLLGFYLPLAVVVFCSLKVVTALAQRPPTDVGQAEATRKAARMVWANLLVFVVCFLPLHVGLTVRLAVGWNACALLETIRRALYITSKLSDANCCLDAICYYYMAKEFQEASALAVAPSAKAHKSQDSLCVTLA
# Test: Antagonist activity at human GPR35 assessed as reduction of zaprinast-induced beta-arrestin recruitment by beta-galactosidase enzyme fragment complementation method relative to untreated control
# Parameters: concentration or dose not given beside the values
# Conditions: concentration not given here
row,inhibition [%],Structure (SMILES)
1,25,O=C1/C(=C/c2cccc(OCc3cccc(Cl)c3)c2)N=C2SCCCCN12
2,3,O=C1/C(=C/c2cccc(OCc3ccc(Cl)cc3)c2)N=C2SCCCN12

# Target: T4, G-protein coupled receptor 35
# Test: Antagonist activity at human GPR35 assessed as reduction of zaprinast-induced beta-arrestin recruitment by beta-galactosidase enzyme fragment complementation method
# Conditions: not given
row,pIC50,Structure (SMILES)
1,< 5.00,O=C1/C(=C/c2cccc(OCc3cccc(Cl)c3)c2)N=C2SCCCCN12
2,< 5.00,O=C1/C(=C/c2cccc(OCc3ccc(Cl)cc3)c2)N=C2SCCCN12

# Target: T4, G-protein coupled receptor 35
# Test: Agonist activity at human GPR35 assessed as induction of beta-arrestin recruitment by beta-galactosidase enzyme fragment complementation method relative to zaprinast
# Parameters: concentration or dose not given beside the values
# Conditions: not given
row,Activity [%],Structure (SMILES)
1,-3,O=C1/C(=C/c2cccc(OCc3cccc(Cl)c3)c2)N=C2SCCCCN12
2,-1,O=C1/C(=C/c2cccc(OCc3ccc(Cl)cc3)c2)N=C2SCCCN12

# Target: T4, G-protein coupled receptor 35
# Test: Agonist activity at human GPR35 assessed as induction of beta-arrestin recruitment by beta-galactosidase enzyme fragment complementation method
# Conditions: not given
row,pEC50,Structure (SMILES)
1,< 5.00,O=C1/C(=C/c2cccc(OCc3cccc(Cl)c3)c2)N=C2SCCCCN12
2,< 5.00,O=C1/C(=C/c2cccc(OCc3ccc(Cl)cc3)c2)N=C2SCCCN12

# Target: Cannabinoid receptor 1 (Rattus norvegicus) (UniProt P20272)
# Test: Displacement of [3H]CP55,940 from CB1 receptor in rat brain cortical membranes at 10 uM
# Type: cell membranes
# Conditions: not given
row,Structure (SMILES),inhibition [%]
1,O=C1/C(=C/c2cccc(OCc3ccccc3Cl)c2)N=C2SCCCCN12,37
2,O=C(Oc1cccc(/C=C2\N=C3SCCCN3C2=O)c1)c1ccccc1,13

# Target: Cannabinoid receptor 1 (Rattus norvegicus, UniProt P20272)
# Sequence (P20272 whole entry): as the sequence (P20272 whole entry) above
# Test: Displacement of [3H]CP55,940 from CB1 receptor in rat brain cortical membranes
# Type: cell membranes
# Conditions: not given
row,Structure (SMILES),pKi
1,O=C1/C(=C/c2cccc(OCc3ccccc3Cl)c2)N=C2SCCCCN12,< 5.00
2,O=C(Oc1cccc(/C=C2\N=C3SCCCN3C2=O)c1)c1ccccc1,< 5.00

# Further compounds by rising pKi, results first:
row,pKi,Structure (SMILES)
1,5.08,O=C1/C(=C/c2cccc(OCc3ccc(Cl)cc3)c2)N=C2SCCCN12
2,5.61,O=C1/C(=C/c2cccc(OCc3cccc(Cl)c3)c2)N=C2SCCCCN12
3,6.26,O=C1/C(=C/c2cccc(OCc3ccc(Cl)cc3Cl)c2)N=C2SCCCN12

# Target: T5, Cannabinoid receptor 2 (Homo sapiens, UniProt P34972)
# T5 sequence (P34972 whole entry): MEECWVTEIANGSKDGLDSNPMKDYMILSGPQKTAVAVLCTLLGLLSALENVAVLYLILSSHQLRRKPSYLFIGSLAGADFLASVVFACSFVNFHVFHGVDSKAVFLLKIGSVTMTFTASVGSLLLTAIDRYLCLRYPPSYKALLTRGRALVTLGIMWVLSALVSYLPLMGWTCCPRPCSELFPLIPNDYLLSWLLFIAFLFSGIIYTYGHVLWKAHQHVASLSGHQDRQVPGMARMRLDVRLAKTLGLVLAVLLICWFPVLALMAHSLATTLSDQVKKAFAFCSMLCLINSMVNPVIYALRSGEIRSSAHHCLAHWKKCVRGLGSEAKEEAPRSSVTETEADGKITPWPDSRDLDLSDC
# Test: Agonist activity at human recombinant CB2 receptor expressed in CHO-K1 cell membranes assessed effect on forskolin-induced cAMP accumulation at 10 uM
# Type: functional, cell-based
# Conditions: not given
row,Activity,Structure (SMILES)
1,inactive,O=C1/C(=C/c2cccc(OCc3ccccc3Cl)c2)N=C2SCCCCN12
2,inactive,O=C1/C(=C/c2cccc(OCc3ccc(Cl)cc3Cl)c2)N=C2SCCCN12

# Target: T1, Cannabinoid receptor 1
# Test: Agonist activity at human recombinant CB1 receptor expressed in CHO-K1 cell membranes assessed effect on forskolin-induced cAMP accumulation at 10 uM
# Type: functional, cell-based
# Conditions: not given
row,Activity,Structure (SMILES)
1,inactive,O=C1/C(=C/c2cccc(OCc3ccc(Cl)cc3Cl)c2)N=C2SCCCN12

# Target: T5, Cannabinoid receptor 2
# Test: Displacement of [3H]CP55,940 from human recombinant CB2 receptor expressed in HEK293 cells at 10 uM
# Type: cell-based
# Conditions: not given
row,Structure (SMILES),inhibition [%]
1,O=C(Oc1cccc(/C=C2\N=C3SCCCN3C2=O)c1)c1ccccc1,47
2,O=C1/C(=C/c2cccc(OCc3cccc(Cl)c3)c2)N=C2SCCCCN12,37

# Target: T5, Cannabinoid receptor 2
# Test: Displacement of [3H]CP55,940 from human recombinant CB2 receptor expressed in HEK293 cells
# Type: cell-based
# Conditions: not given
row,Structure (SMILES),pKi
1,O=C1/C(=C/c2cccc(OCc3ccccc3Cl)c2)N=C2SCCCCN12,6.01
2,O=C(Oc1cccc(/C=C2\N=C3SCCCN3C2=O)c1)c1ccccc1,≤ 5.00

# Now from value to compound:
row,pKi,Structure (SMILES)
1,5.39,O=C1/C(=C/c2cccc(OCc3ccc(Cl)cc3)c2)N=C2SCCCN12
2,< 5.00,O=C1/C(=C/c2cccc(OCc3cccc(Cl)c3)c2)N=C2SCCCCN12
3,6.02,O=C1/C(=C/c2cccc(OCc3ccc(Cl)cc3Cl)c2)N=C2SCCCN12

# Target: T1, Cannabinoid receptor 1
# Test: Displacement of [3H]CP55,940 from human recombinant CB1 receptor expressed in CHO-K1 cells at 10 uM
# Type: cell-based
# Conditions: not given
row,Structure (SMILES),inhibition [%]
1,O=C(Oc1cccc(/C=C2\N=C3SCCCN3C2=O)c1)c1ccccc1,2
2,O=C1/C(=C/c2cccc(OCc3ccc(Cl)cc3)c2)N=C2SCCCN12,0

# Target: T1, Cannabinoid receptor 1
# Test: Displacement of [3H]CP55,940 from human recombinant CB1 receptor expressed in CHO-K1 cells
# Type: cell-based
# Conditions: not given
row,Structure (SMILES),pKi
1,O=C1/C(=C/c2cccc(OCc3ccccc3Cl)c2)N=C2SCCCCN12,5.64
2,O=C(Oc1cccc(/C=C2\N=C3SCCCN3C2=O)c1)c1ccccc1,< 5.00

# Continued, values first:
row,pKi,Structure (SMILES)
1,< 5.00,O=C1/C(=C/c2cccc(OCc3ccc(Cl)cc3)c2)N=C2SCCCN12
2,5.67,O=C1/C(=C/c2cccc(OCc3cccc(Cl)c3)c2)N=C2SCCCCN12
3,5.68,O=C1/C(=C/c2cccc(OCc3ccc(Cl)cc3Cl)c2)N=C2SCCCN12

# Target: T2, G-protein coupled receptor 55
# Test: Antagonist activity against human GPR55 expressed in CHO cells assessed as reduction in LPI-induced beta-arrestin recruitment at 10 uM by beta-galactosidase enzyme fragment complementation method
# Type: cell-based
# Conditions: not given
row,Structure (SMILES),inhibition [%]
1,O=C1/C(=C/c2cccc(OCc3ccccc3Cl)c2)N=C2SCCCCN12,43
2,O=C(Oc1cccc(/C=C2\N=C3SCCCN3C2=O)c1)c1ccccc1,7

# The remaining lines, values ahead:
row,inhibition [%],Structure (SMILES)
1,0,O=C1/C(=C/c2cccc(OCc3ccc(Cl)cc3)c2)N=C2SCCCN12
2,27,O=C1/C(=C/c2cccc(OCc3cccc(Cl)c3)c2)N=C2SCCCCN12
3,0,O=C1/C(=C/c2cccc(OCc3ccc(Cl)cc3Cl)c2)N=C2SCCCN12

# Target: T2, G-protein coupled receptor 55
# Test: Antagonist activity against human GPR55 expressed in CHO cells assessed as reduction in LPI-induced beta-arrestin recruitment by beta-galactosidase enzyme fragment complementation method
# Type: cell-based
# Conditions: not given
row,Structure (SMILES),pIC50
1,O=C1/C(=C/c2cccc(OCc3ccccc3Cl)c2)N=C2SCCCCN12,≤ 5.00
2,O=C(Oc1cccc(/C=C2\N=C3SCCCN3C2=O)c1)c1ccccc1,< 5.00

# The next lines start with the values.
row,pIC50,Structure (SMILES)
1,< 5.00,O=C1/C(=C/c2cccc(OCc3ccc(Cl)cc3)c2)N=C2SCCCN12
2,< 5.00,O=C1/C(=C/c2cccc(OCc3cccc(Cl)c3)c2)N=C2SCCCCN12
3,< 5.00,O=C1/C(=C/c2cccc(OCc3ccc(Cl)cc3Cl)c2)N=C2SCCCN12

# Target: T3, N-arachidonyl glycine receptor (Homo sapiens)
# Test: Antagonist activity against human GPR18 expressed in CHO cells assessed as reduction in delta9-THC-induced beta-arrestin recruitment at 10 uM by beta-galactosidase enzyme fragment complementation method
# Type: cell-based
# Conditions: not given
row,inhibition [%],Structure (SMILES)
1,15,O=C1/C(=C/c2cccc(OCc3cccc(Cl)c3)c2)N=C2SCCCCN12

# Target: T6, N-arachidonyl glycine receptor (Homo sapiens, UniProt Q14330)
# T6 sequence (Q14330 whole entry): T3 sequence (whole entry)
# Test: Antagonist activity against human GPR18 expressed in CHO cells assessed as reduction in delta9-THC-induced beta-arrestin recruitment by beta-galactosidase enzyme fragment complementation method
# Type: cell-based
# Conditions: not given
row,Structure (SMILES),pIC50
1,O=C1/C(=C/c2cccc(OCc3ccccc3Cl)c2)N=C2SCCCCN12,5.19
2,O=C(Oc1cccc(/C=C2\N=C3SCCCN3C2=O)c1)c1ccccc1,5.20

# The next lines start with the values.
row,pIC50,Structure (SMILES)
1,6.55,O=C1/C(=C/c2cccc(OCc3ccc(Cl)cc3)c2)N=C2SCCCN12
2,< 5.00,O=C1/C(=C/c2cccc(OCc3cccc(Cl)c3)c2)N=C2SCCCCN12
3,5.59,O=C1/C(=C/c2cccc(OCc3ccc(Cl)cc3Cl)c2)N=C2SCCCN12
